Experimental data: the supplement of paper PMC10307832

Legend:
Assay in all cases: relative viability (nuclei count vs DMSO), 5 days (fraction); higher = more cells survive
[1] = compound: CN[C@@H]1C[C@H]2O[C@@](C)([C@@H]1OC)n1c3ccccc3c3c4c(c5c6ccccc6n2c5c31)C(=O)NC4 [Staurosporine] + CC(=O)c1c(C)c2cnc(Nc3ccc(N4CCNCC4)cn3)nc2n(C2CCCC2)c1=O [Palbociclib] (partner 0.5 µM)
Summary of the method: (§1)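 The day after seeding in 1536-well plates, lung cancer cell lines were treated by pin tool with a single drug, or with a fixed anchor-drug dose together with five library-drug doses (not always all listed) in √10 steps. After 5 days, a combined fix-and-stain solution (final 0.05% Triton X-100, 1% formaldehyde, 1 ug/ml Hoechst) was added. Nuclei counted on 4× images gave relative viability as treated counts over vehicle counts, reported as the median of duplicate plates.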

Sulindac + Navitoclax = compound: CC1=C(CC(=O)O)c2cc(F)ccc2/C1=C\c1ccc([S+](C)[O-])cc1 [Sulindac] + CC1(C)CCC(c2ccc(Cl)cc2)=C(CN2CCN(c3ccc(C(=O)NS(=O)(=O)c4ccc(N[C@H](CCN5CCOCC5)CSc5ccccc5)c(S(=O)(=O)C(F)(F)F)c4)cc3)CC2)C1 [Navitoclax] (partner 0.5 µM)
Summary of the method: as §1

[2] = compound: O=c1[nH]cc(F)c(=O)[nH]1 [5-Fluorouracil] + Nc1nc2[nH]cc(CCc3ccc(C(=O)N[C@@H](CCC(=O)O)C(=O)O)cc3)c2c(=O)[nH]1 [Pemetrexed] (partner 0.2 µM)
Summary of the method: as §1

[3] = compound: CN[C@@H]1C[C@H]2O[C@@](C)([C@@H]1OC)n1c3ccccc3c3c4c(c5c6ccccc6n2c5c31)C(=O)NC4 [Staurosporine] + CC1(C)CCC(c2ccc(Cl)cc2)=C(CN2CCN(c3ccc(C(=O)NS(=O)(=O)c4ccc(N[C@H](CCN5CCOCC5)CSc5ccccc5)c(S(=O)(=O)C(F)(F)F)c4)cc3)CC2)C1 [Navitoclax] (partner 0.5 µM)
Summary of the method: as §1

Cell Line | relative viability ([1]; first compound 0.005 µM) | relative viability ([1]; first compound 0.01581 µM) | relative viability ([1]; first compound 0.05 µM) | relative viability ([1]; first compound 0.1581 µM) | relative viability ([1]; first compound 0.5 µM) | relative viability (Sulindac + Navitoclax; first compound 0.08 µM) | relative viability (Sulindac + Navitoclax; first compound 0.253 µM) | relative viability (Sulindac + Navitoclax; first compound 0.8 µM) | relative viability (Sulindac + Navitoclax; first compound 2.53 µM) | relative viability (Sulindac + Navitoclax; first compound 8 µM) | relative viability ([2]; first compound 0.02 µM) | relative viability ([2]; first compound 0.2 µM) | relative viability ([2]; first compound 0.6325 µM) | relative viability ([2]; first compound 2 µM) | relative viability ([3]; first compound 0.005 µM) | relative viability ([3]; first compound 0.01581 µM) | relative viability ([3]; first compound 0.05 µM) | relative viability ([3]; first compound 0.1581 µM) | relative viability ([3]; first compound 0.5 µM)
RERF-LC-KJ | 0.914 | 0.916 | 0.475 | 0.4 | 0.26 | 1.23 | 0.983 | 0.797 | 0.749 | 1.11 | 0.483 | 0.507 | 0.531 | 0.495 | 1.14 | 0.665 | 0.479 | 0.244 | 0.236
HOP-62 | 0.334 | 0.194 | 0.116 | 0.106 | 0.0933 | 0.982 | 1.37 |  | 1.21 | 1.22 | 0.323 | 0.361 | 0.287 | 0.342 | 0.957 | 0.528 | 0.152 | 0.121 | 0.104
NCI-H2126 | 0.353 | 0.339 | 0.348 | 0.33 | 0.327 | 0.823 | 0.894 | 0.817 | 0.856 | 0.853 | 0.647 | 0.435 | 0.38 | 0.304 | 0.915 | 0.624 | 0.461 | 0.433 | 0.339
SW 1573 | 0.172 | 0.113 | 0.131 | 0.0619 | 0.081 |  | 1.02 |  | 1.09 | 1.2 | 0.853 | 0.815 | 0.704 | 0.408 | 0.898 | 0.297 | 0.193 | 0.0915 | 0.0731
NCI-H1793 | 0.446 |  | 0.314 | 0.191 | 0.166 | 0.341 | 0.396 | 0.364 | 0.458 | 0.473 | 0.944 | 0.942 | 0.695 | 0.503 | 0.573 | 0.238 | 0.326 | 0.23 | 0.264
SK-LU-1 | 0.326 | 0.186 | 0.166 | 0.164 | 0.161 | 0.96 | 0.875 | 0.694 | 0.84 | 1.54 | 0.959 | 1.01 | 0.916 | 0.763 | 0.323 | 0.115 | 0.131 | 0.151 | 0.059
H3255 | 0.275 | 0.24 | 0.24 | 0.181 | 0.178 | 0.54 | 0.685 | 0.551 | 0.512 | 0.612 | 0.557 | 0.6 | 0.557 | 0.449 | 0.172 | 0.102 | 0.112 | 0.0846 | 0.0541
EMC-BAC-2 | 0.383 | 0.242 | 0.213 | 0.228 | 0.207 | 1.49 | 1.21 | 0.776 | 1.19 | 1.23 | 0.47 | 0.479 | 0.419 | 0.484 | 1.1 | 0.777 | 0.172 | 0.153 | 0.127
CAL-12T | 0.196 | 0.138 | 0.107 | 0.142 | 0.122 | 1.67 | 1.35 | 0.969 | 1.38 | 1.42 | 1.19 | 1 | 0.942 | 0.657 | 0.285 | 0.314 | 0.152 | 0.13 | 0.0943
SK-MES-1 | 0.235 | 0.232 | 0.193 | 0.163 | 0.147 | 1.43 | 1.3 | 1.31 | 1.27 | 1.45 | 0.837 | 0.473 | 0.351 | 0.303 | 0.925 | 0.329 | 0.28 | 0.173 | 0.134
NCI-H1355 | 0.411 | 0.3 | 0.214 | 0.188 | 0.161 | 1.03 | 0.989 | 0.806 | 0.961 | 0.914 | 0.928 | 0.762 | 0.311 | 0.257 | 0.975 | 0.549 | 0.249 | 0.28 | 0.217
PC-3 [JPC-3] | 0.563 | 0.513 | 0.398 | 0.398 | 0.343 | 0.971 | 0.758 | 0.786 | 0.762 | 0.752 | 0.987 | 1.02 | 1.02 | 0.751 | 0.933 |  | 0.552 | 0.485 | 0.406
LK-2 | 0.798 | 0.555 | 0.49 | 0.426 | 0.287 | 1.03 | 0.91 | 0.722 | 0.768 | 0.891 | 0.294 | 0.35 | 0.264 | 0.201 | 0.965 | 0.54 | 0.456 | 0.109 | 0.0967
NCI-H1650 | 0.238 | 0.138 | 0.147 | 0.118 | 0.0769 | 1.23 | 1.12 | 1.16 | 1.04 | 1.38 | 0.362 | 0.335 | 0.353 | 0.286 | 0.63 | 0.493 | 0.29 | 0.192 | 0.116
NCI-H1734 | 0.332 | 0.204 | 0.202 | 0.16 | 0.147 | 0.785 | 1.03 | 0.594 | 0.987 | 1.12 | 0.419 | 0.412 | 0.401 | 0.45 | 0.921 | 0.363 | 0.195 | 0.105 | 0.0733
